The values that follow come from paper PMC4245237, “Searching the Cytochrome P450 Enzymes for the Metabolism of Meranzin Hydrate: A Prospective Antidepressant Originating from Chaihu-Shugan-San” (PLoS ONE, 2014).

“And” between values parts separate entries of the source, which are not always exact repeats. Equal entries are not always repeated. “Also recorded” adds a separate entry of the source. Structures can show the parent of a compound that is named as a salt. Where two headings read alike, the source gives them in different places. Where only a bound is given, the exact number is not on record here.

The target of data set [1] is T1, CYP3A4 (Homo sapiens, UniProt P08684).
T1 construct: tissue Cypex Ltd. (U.K.); host or cells: pooled human liver microsomes, ten donors
Kind of data set: Effect of specific inhibitor ketoconazole on MH metabolism in HLMs. The class given is in vitro ADME. Particulars: MH 10 µM, in the presence of KET 1 µM. As for the experimental part:
(§1) The samples were vortexed for 5 min.
(§2) P<0.05 denoted significance in all cases.

Data set [2] has as its target T2, CYP1A2 (Homo sapiens, UniProt P05177).
T2 sequence (P05177 1-516): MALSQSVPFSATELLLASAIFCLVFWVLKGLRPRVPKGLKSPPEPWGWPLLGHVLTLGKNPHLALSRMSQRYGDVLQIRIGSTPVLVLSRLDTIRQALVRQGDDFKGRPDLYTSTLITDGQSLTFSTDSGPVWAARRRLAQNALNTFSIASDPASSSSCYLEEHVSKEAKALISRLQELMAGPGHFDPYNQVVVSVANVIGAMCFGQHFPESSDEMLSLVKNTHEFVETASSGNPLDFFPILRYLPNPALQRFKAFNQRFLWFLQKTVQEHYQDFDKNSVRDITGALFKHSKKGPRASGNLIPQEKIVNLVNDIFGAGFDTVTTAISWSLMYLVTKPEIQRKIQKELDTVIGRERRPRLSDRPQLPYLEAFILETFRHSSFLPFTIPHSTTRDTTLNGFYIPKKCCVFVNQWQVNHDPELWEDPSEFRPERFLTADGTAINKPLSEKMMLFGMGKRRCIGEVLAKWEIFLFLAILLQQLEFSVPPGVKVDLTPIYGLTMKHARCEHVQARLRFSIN
Kind of data set: MCR of MH with recombinant CYP1A2 inhibited by furafylline. On the set-up: purchased Cypex Ltd. (U.K.). In kind it is in vitro ADME. Particulars: furafylline 1 µM. The procedure:
as §1
(§3) Figure 3 Effect on the metabolic clearance rate (MCR) of meranzin hydrate (MH) under the inhibition of recombinant CYP1A2 and CYP2C19. […] Each point represents the average of triplicate incubations.

The target of data set [3] is T3, CYP2D6 (Homo sapiens, UniProt P10635).
T3 construct: tissue Cypex Ltd. (U.K.); host or cells: pooled human liver microsomes, ten donors
Kind of data set: Inhibition of CYP2D6 (metoprolol α-hydroxylation) in HLMs. In kind it is in vitro ADME. As for the experimental part: as §1
(§4) All incubation conditions were the same as mentioned above.
as §2

Data set [4] addresses T4, CYP2C19 (Homo sapiens, UniProt P33261). Briefly: Kinetic analysis of MH metabolism by recombinant CYP2C19. The class given is in vitro ADME. More on the design: purchased Cypex Ltd. (U.K.). Particulars: recombinant CYP2C19 10 pmol. As for the experimental part:
as §1
(§5) Kinetic analysis was performed for MH, and the data generated were used as a guide for selecting the appropriate concentrations of MH in the subsequent inhibition experiments. Thus, the kinetic parameters for the metabolism of MH was determined by incubating increasing concentrations of MH (0.5–100 µM) (without the inhibitor) at 37°C with the HLMs and NADPH under the incubation conditions. The equation of MH reaction velocity (V) in the HLMs or CYP isoforms was expressed as V = (C0–Ct)/T/Cp, where C0 and Ct represented the initial and final concentrations of MH in the incubation solution, respectively. T was the incubation time (min) and Cp was the protein concentration (mg/mL or nmol). All values were expressed as the mean±standard deviation (SD). The mean intrinsic clearance rate (CLint) for the in vitro incubation was estimated using Vmax/Km.
as §2

Data set [5] has as its target T2, CYP1A2. Kind of data set: Kinetic analysis of MH metabolism by recombinant CYP1A2. The conditions noted are these: recombinant CYP1A2 10 pmol. More on the design: purchased Cypex Ltd. (U.K.). In kind it is in vitro ADME. The procedure: as §1, §5, §2
For data set [6], the system named is longitudinal and circular jejunum muscles. Particulars: dose-dependent manner; cited from earlier work.
Details of data set [7]: method as in PMID 21061180. Particulars: rats; cited from earlier work.
Data set [8] deals with T2, CYP1A2. Kind of data set: Effect of specific inhibitor furafylline on MH metabolism in HLMs. More on the design: tissue Cypex Ltd. (U.K.); host or cells: pooled human liver microsomes, ten donors. The class given is in vitro ADME. Particulars: MH 10 µM, in the presence of FUR 1 µM. As for the experimental part:
as §1, §2

For data set [9], the system named is human liver microsomes (HLMs). Briefly: Kinetic analysis of MH metabolism in HLMs. The class given is in vitro ADME. Particulars: HLMs 0.5 mg/mL, MH 0.5–100 µM, 30 min, 37°C.
For data set [10], the target named is T5, CYP2C9 (Homo sapiens, UniProt P11712).
T5 construct: tissue Cypex Ltd. (U.K.); host or cells: pooled human liver microsomes, ten donors
Kind of data set: Effect of specific inhibitor sulfaphenazole on MH metabolism in HLMs. In kind it is in vitro ADME. The conditions noted are these: MH 10 µM, in the presence of SUL 1 µM. As for the experimental part: as §1, §2

Data set [11] has as its target T1, CYP3A4. Kind of data set: Inhibition of CYP3A4 (midazolam 1-hydroxylation) in HLMs. In kind it is in vitro ADME. As for the experimental part:
as §1, §4, §2

In data set [12] the target is T4, CYP2C19. Briefly: MCR of MH with recombinant CYP2C19 inhibited by ticlopidine. The class given is in vitro ADME. More on the design: purchased Cypex Ltd. (U.K.). Particulars: ticlopidine 1 µM. As for the experimental part:
as §1, §3

Data set [13] deals with T2, CYP1A2. Kind of data set: Inhibition of CYP1A2 (phenacetin O-deethylation) in HLMs. On the set-up: tissue Cypex Ltd. (U.K.); host or cells: pooled human liver microsomes, ten donors. The class given is in vitro ADME. As for the experimental part:
as §1, §4
(§6) Therefore, Dixon plots for the inhibition of CYP1A2 and CYP2C19 were determined by incubating the substrate probe at multiple concentrations with or without the test inhibitor at multiple concentrations with the HLMs and cofactors. The inhibition data obtained from the pilot experiments were used as a guide to generate appropriate probe substrate and test inhibitor concentrations for the determination of the Ki values for each CYP isoform. The isoform-specific probe substrate concentrations used were 3 to 100 µM phenacetin for CYP1A2 and 15 to 120 µM S-mephenytoin for CYP2C19. The MH concentrations used were 0 to 100 µM.
as §2

For data set [14], the target named is T4, CYP2C19. Briefly: Inhibition of CYP2C19 (S-Mephenytoin 4-hydroxylation) in HLMs. The class given is in vitro ADME. More on the design: tissue Cypex Ltd. (U.K.); host or cells: pooled human liver microsomes, ten donors. The procedure:
as §1, §4, §6, §2

Data set [15] addresses T5, CYP2C9. Briefly: Inhibition of CYP2C9 (tolbutamide 4-hydroxylation) in HLMs. In kind it is in vitro ADME. As for the experimental part: as §1, §4, §2
In data set [16] the target is T3, CYP2D6. Briefly: Effect of specific inhibitor quinidine on MH metabolism in HLMs. The class given is in vitro ADME. The conditions noted are these: MH 10 µM, in the presence of QUI 1 µM. As for the experimental part:
as §1, §2

Data set [17] concerns the target T4, CYP2C19. Kind of data set: Effect of specific inhibitor ticlopidine on MH metabolism in HLMs. On the set-up: tissue Cypex Ltd. (U.K.); host or cells: pooled human liver microsomes, ten donors. The class given is in vitro ADME. Particulars: MH 10 µM, in the presence of TIC 1 µM. The procedure:
as §1, §2

Another data set addresses CYP2E1 (Homo sapiens, UniProt P05181). Particulars: cited from earlier work.

T4 sequence (P33261 whole entry): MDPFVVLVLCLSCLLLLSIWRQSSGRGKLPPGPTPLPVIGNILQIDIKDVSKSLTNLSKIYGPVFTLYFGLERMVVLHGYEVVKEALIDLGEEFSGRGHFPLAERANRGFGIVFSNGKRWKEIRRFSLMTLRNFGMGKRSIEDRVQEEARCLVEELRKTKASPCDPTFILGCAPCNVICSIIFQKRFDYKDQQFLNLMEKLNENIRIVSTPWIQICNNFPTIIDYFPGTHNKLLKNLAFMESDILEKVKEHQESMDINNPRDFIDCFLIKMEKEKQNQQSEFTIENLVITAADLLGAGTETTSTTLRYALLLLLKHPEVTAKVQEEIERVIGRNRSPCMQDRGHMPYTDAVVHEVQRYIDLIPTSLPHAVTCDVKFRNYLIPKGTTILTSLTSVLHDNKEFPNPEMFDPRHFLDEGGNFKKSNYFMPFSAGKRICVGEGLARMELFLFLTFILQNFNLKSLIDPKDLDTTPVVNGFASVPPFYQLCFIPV
T1 sequence (P08684 whole entry): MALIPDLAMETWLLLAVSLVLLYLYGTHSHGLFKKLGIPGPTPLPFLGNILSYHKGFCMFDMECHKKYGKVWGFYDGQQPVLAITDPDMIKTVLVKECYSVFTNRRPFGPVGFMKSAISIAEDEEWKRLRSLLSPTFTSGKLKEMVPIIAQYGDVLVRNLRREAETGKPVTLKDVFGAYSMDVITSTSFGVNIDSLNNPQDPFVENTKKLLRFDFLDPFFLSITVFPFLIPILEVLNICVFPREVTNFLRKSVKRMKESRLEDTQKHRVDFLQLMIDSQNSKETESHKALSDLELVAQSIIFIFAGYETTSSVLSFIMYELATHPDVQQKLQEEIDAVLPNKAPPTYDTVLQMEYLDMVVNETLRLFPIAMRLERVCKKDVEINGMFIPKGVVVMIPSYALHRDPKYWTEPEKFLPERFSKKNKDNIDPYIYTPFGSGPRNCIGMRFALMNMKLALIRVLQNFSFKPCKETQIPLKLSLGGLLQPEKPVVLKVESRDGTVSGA
T5 sequence (P11712 whole entry): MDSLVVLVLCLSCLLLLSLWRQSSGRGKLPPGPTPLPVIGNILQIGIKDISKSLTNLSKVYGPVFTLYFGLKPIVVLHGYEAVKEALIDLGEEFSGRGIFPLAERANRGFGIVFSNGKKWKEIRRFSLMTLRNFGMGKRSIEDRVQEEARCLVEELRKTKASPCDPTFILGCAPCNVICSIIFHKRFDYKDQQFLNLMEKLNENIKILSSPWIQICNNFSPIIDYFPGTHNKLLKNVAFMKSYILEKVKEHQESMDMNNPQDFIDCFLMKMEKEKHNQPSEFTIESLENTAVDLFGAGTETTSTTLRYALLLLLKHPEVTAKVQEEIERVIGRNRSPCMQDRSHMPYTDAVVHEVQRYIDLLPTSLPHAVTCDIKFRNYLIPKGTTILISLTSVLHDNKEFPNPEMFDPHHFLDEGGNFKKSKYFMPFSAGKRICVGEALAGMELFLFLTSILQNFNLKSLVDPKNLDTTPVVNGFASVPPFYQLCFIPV
T3 sequence (P10635 whole entry): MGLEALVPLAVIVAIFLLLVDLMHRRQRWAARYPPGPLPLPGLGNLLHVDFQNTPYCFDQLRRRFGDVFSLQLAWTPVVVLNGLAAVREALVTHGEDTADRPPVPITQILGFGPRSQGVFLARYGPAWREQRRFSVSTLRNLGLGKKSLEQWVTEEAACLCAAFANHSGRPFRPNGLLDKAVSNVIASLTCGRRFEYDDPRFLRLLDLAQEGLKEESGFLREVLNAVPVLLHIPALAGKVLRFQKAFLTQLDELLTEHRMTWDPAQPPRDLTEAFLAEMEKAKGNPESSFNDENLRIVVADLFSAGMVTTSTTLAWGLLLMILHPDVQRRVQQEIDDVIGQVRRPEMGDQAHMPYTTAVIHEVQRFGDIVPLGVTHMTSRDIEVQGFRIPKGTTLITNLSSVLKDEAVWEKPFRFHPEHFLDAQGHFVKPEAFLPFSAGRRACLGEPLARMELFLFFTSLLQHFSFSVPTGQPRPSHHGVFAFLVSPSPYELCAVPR
Sequence of CYP2E1 (P05181 whole entry): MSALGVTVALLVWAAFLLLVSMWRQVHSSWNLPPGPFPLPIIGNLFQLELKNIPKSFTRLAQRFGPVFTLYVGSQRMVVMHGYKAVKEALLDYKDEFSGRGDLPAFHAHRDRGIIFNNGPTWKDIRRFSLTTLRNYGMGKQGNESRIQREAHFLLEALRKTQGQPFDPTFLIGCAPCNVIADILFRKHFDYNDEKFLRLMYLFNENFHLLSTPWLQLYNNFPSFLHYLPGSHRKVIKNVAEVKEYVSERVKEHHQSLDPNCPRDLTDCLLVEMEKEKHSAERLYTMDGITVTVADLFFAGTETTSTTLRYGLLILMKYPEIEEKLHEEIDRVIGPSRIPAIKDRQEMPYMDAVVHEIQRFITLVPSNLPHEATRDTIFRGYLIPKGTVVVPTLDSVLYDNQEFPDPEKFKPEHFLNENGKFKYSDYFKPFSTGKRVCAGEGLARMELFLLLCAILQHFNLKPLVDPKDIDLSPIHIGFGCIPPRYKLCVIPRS

For orientation: IC50 means the concentration at which inhibition is half-maximal. The term Km denotes the substrate concentration at which the rate is half of its maximum. For orientation: Ki means a measure of affinity in units of concentration, obtained from inhibition or displacement. For the compound `COc1ccc2ccc(=O)oc2c1C[C@H](O)C(C)(C)O` [MH, Meranzin hydrate], the “effect on metabolism (MCR) of MH” value at CYP3A4 [1], on CYP2C9 [10] and on CYP2D6 [16] was “no obvious inhibitory effects” in each case. Moreover, the “MCR of MH, % of that of the control” value at CYP1A2 [2] (recombinant CYP1A2, MH 10 µM) was 43.5%; at CYP1A2 [2] (recombinant CYP1A2, MH 50 µM), 60.5%; at CYP2C19 [12] (recombinant CYP2C19, MH 10 µM), 68.5%; at CYP2C19 [12] (recombinant CYP2C19, MH 50 µM), 80.5%. Further, the concentration for half-maximal inhibition (IC50) at CYP2D6 [3] (CYP2D6, classification of Kong et al [23], read-out: inhibitor potency class by IC50) is greater than 50 µM; on CYP2D6 [3] (HLMs, metoprolol 7.5 µM, read-out: IC50), greater than 100 µM; on CYP3A4 [11] (CYP3A4, classification of Kong et al [23], read-out: inhibitor potency class by IC50), greater than 50 µM; on CYP3A4 [11] (HLMs, midazolam 5 µM, read-out: IC50), greater than 100 µM; on CYP1A2 [13] (CYP1A2, classification of Kong et al [23], read-out: inhibitor potency class by IC50), less than 10 µM; at CYP1A2 [13] (HLMs, phenacetin 10 µM, brackets = 95% confidence interval, read-out: IC50), 4.47 µM. The IC50 was 10 to 50 µM on CYP2C19 [14] (CYP2C19, classification of Kong et al [23], read-out: inhibitor potency class by IC50); greater than 50 µM on CYP2C9 [15] (CYP2C9, classification of Kong et al [23], read-out: inhibitor potency class by IC50); greater than 100 µM at CYP2C9 [15] (HLMs, tolbutamide 100 µM, read-out: IC50). Moreover, the Km at CYP2C19 [4] turned out to be 25.9 ± 6.6 µM; on CYP2C19 [4] (listed as Meranzin hydrate) it was 25.9 µM; at CYP1A2 [5], 8 ± 1.6 µM; in data set [9] it was 10.3 ± 1.3 µM; in data set [9] (listed as Meranzin hydrate), 10.3 µM. In addition, the “Vmax of MH metabolism” value at CYP2C19 [4] is listed as 134.3±12.4 nmol/nmol P450/min; at CYP2C19 [4] (listed as Meranzin hydrate) it was 134.3 nmol/nmol P450/min; at CYP1A2 [5], 112.4±5.7 nmol/nmol P450/min; at CYP1A2 [5] (listed as Meranzin hydrate), 112.4 nmol/nmol P450/min; in [9], 99.1±3.3 nmol/mg protein/min; in data set [9] (listed as Meranzin hydrate), 99.11 nmol/mg protein/min. Moreover, in data set [6], the “amplitude of contractility in the longitudinal and circular jejunum muscles” value is “increase the amplitude of contractility”. Moreover, the gastric emptying entry in data set [7] was “significantly accelerated”. Besides, the intestinal transit result in [7] is recorded as “significantly accelerated”. Also, the “metabolic clearance rate (MCR) of MH, % of that of the control” value at CYP1A2 [8] is 29.1±7.2% and 29.1%; on CYP2C19 [17] it was 41.3±11.1% and 41.3%. Further, the type of inhibition result on CYP1A2 [13] (CYP1A2, HLMs, Dixon / Lineweaver-Burk plots) is “competitive”; on CYP2C19 [14] (CYP2C19, HLMs, Dixon / Lineweaver-Burk plots) it was “competitively; also recorded: full competitive inhibition”. For the same compound, at CYP1A2 [13] (CYP1A2, phenacetin O-deethylation, HLMs, higher than FUR), the “IC50 of MH relative to that of FUR” value is 3.2 fold. At CYP1A2 [13] (CYP1A2, phenacetin O-deethylation, higher than FUR), the “Ki of MH relative to that of FUR” value is “approximately 1.5 fold”. Further, the Ki is 4.56 µM at CYP1A2 [13] (HLMs, phenacetin 3 to 100 µM, MH 0 to 100 µM) and 42.6 µM on CYP2C19 [14] (HLMs, S-mephenytoin 15 to 120 µM, MH 0 to 100 µM).
For `Cc1ncsc1CCCl` [CHL, chlormethiazole hydrochloride], on CYP2E1 (read-out: Ki, specific inhibitor reported value, CYP2E1), the inhibition constant (Ki) was 12 µM.
Take `CCN(CC)C(=S)S` [DIE, diethyldithiocarbamate]: at CYP2E1, the IC50 was 21.3 µM.
